Data on 12 compounds can be found in PubChem BioAssay (NCI).

Some test systems named below: UACC-257 melanoma; K-562 leukemia; M14 melanoma; OVCAR-4 ovarian; 786-0 renal; SR leukemia; NCI-H460 lung; HOP-92 NSCLC; A549 NSCLC.
Test in all cases: inhibition of tumour cell growth, NCI panel, 48 h

Each structure is given as a SMILES string.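 Each compound was tested at five concentrations against cells in 96-well plates for 48 hours. At the TGI there is no net growth.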 Bounds are passed on as bounds.

In the case of `FC(F)(F)C1(Br)C(c2ccccc2)=C1c1ccccc1`, the TGI in the assay with UACC-257 melanoma was 43 µM; with K-562 leukemia, 28.2 µM; with M14 melanoma, 35 µM; with OVCAR-4 ovarian, 54 µM; in the assay with 786-0 renal, 31 µM; in the assay on SR leukemia, 78.5 µM. For the same compound, the figures for the TGI in the assay with NCI-H460 lung, in the assay on HOP-92 NSCLC and with A549 NSCLC were 80.1 µM, 32.2 µM and 85.7 µM, respectively.
With `O=[N+]([O-])CCc1cccc([N+](=O)[O-])c1`, the TGI in the assay with UACC-257 melanoma, with K-562 leukemia, in the assay with M14 melanoma, in the assay with OVCAR-4 ovarian, in the assay with 786-0 renal and in the assay with SR leukemia was over 100 µM in each case. The TGI with NCI-H460 lung, in the assay on HOP-92 NSCLC and in the assay on A549 NSCLC was over 100 µM throughout.
With `C[N+](C)(C)CC(=O)N/N=C(\C(=O)NC1=C(Cl)C(=O)c2ccccc2C1=O)C(C#N)c1csc(-c2ccc([N+](=O)[O-])cc2)n1` (stereo not drawn), the TGI in the assay on UACC-257 melanoma, in the assay on K-562 leukemia, with M14 melanoma, in the assay with OVCAR-4 ovarian, in the assay with 786-0 renal and in the assay on SR leukemia was over 100 µM in each case. Moreover, the TGI in the assay with NCI-H460 lung, in the assay on HOP-92 NSCLC and with A549 NSCLC was over 100 µM throughout.
For `COC(C(=O)NCCCCNC(=O)C(OC)c1ccccc1)c1ccccc1` (stereo not drawn), the TGI in the assay with UACC-257 melanoma, with K-562 leukemia, with M14 melanoma, in the assay with OVCAR-4 ovarian, in the assay with 786-0 renal and in the assay on SR leukemia was over 100 µM each time. Further, the TGI with NCI-H460 lung, in the assay on HOP-92 NSCLC and with A549 NSCLC was over 100 µM in each case.
`O=C(Nc1cccc(O)c1)C(=O)C(C(=O)c1ccc(Cl)c(Cl)c1)C1OC(=O)c2ccccc21` (stereo not drawn): the TGI was found to be 55.6 µM with UACC-257 melanoma; 48.9 µM in the assay with K-562 leukemia; 37.1 µM in the assay on M14 melanoma; 36.7 µM in the assay with OVCAR-4 ovarian; 26.4 µM in the assay with 786-0 renal; 26.6 µM with SR leukemia. In addition, the TGI with NCI-H460 lung was 27.5 µM; in the assay on HOP-92 NSCLC it was 53.8 µM; in the assay on A549 NSCLC it was over 100 µM.
Consider `CCCN(CCCC(NC(C)=O)C(=O)NCc1ccccc1)C(=O)NCCCl` (stereo not drawn), for which the TGI in the assay on UACC-257 melanoma, with K-562 leukemia, in the assay with M14 melanoma, in the assay with OVCAR-4 ovarian, in the assay on 786-0 renal and in the assay on SR leukemia was over 100 µM each time. Further, the TGI with NCI-H460 lung, in the assay on HOP-92 NSCLC and in the assay with A549 NSCLC was over 100 µM throughout.
For `CN1C(=O)C(=O)c2cc3c(c4c2c1cc1ccccc14)OCO3`, the TGI in the assay on UACC-257 melanoma is over 100 µM; in the assay with K-562 leukemia it was over 100 µM; in the assay with M14 melanoma, over 100 µM; with OVCAR-4 ovarian, over 100 µM; in the assay with 786-0 renal it was over 100 µM; in the assay on SR leukemia, 54.8 µM. The TGI in the assay with NCI-H460 lung, in the assay with HOP-92 NSCLC and with A549 NSCLC was over 100 µM in each case.
As for `CCOC(=N)/C(=C1\OC(N)=C(c2ccc(Cl)cc2)C1=O)c1ccc(Cl)cc1`, the TGI was determined as 35.1 µM in the assay with UACC-257 melanoma; 53.6 µM in the assay on K-562 leukemia; 31.6 µM with M14 melanoma; 31.9 µM in the assay with OVCAR-4 ovarian; 32.7 µM with 786-0 renal; 56.5 µM in the assay with SR leukemia. Besides, the TGI in the assay with NCI-H460 lung was 46 µM; in the assay with HOP-92 NSCLC it was 34 µM; in the assay with A549 NSCLC, 66.7 µM.
Take `CC/C(CC(=O)CCC(=O)Nc1ccccc1[N+](=O)[O-])=N/NC(=O)C[n+]1ccccc1`: the TGI with UACC-257 melanoma, with K-562 leukemia, with M14 melanoma, in the assay with OVCAR-4 ovarian, with 786-0 renal and in the assay with SR leukemia was over 100 µM each time. Also, the TGI in the assay with NCI-H460 lung, in the assay with HOP-92 NSCLC and in the assay with A549 NSCLC was over 100 µM throughout.
Consider `Cn1c(=O)c2nc(-c3ccc(Cl)cc3)oc2n(C)c1=O`, for which the TGI in the assay on UACC-257 melanoma, in the assay on K-562 leukemia, in the assay with M14 melanoma, with OVCAR-4 ovarian, in the assay on 786-0 renal and with SR leukemia was over 100 µM throughout. In addition, the TGI in the assay on NCI-H460 lung, in the assay on HOP-92 NSCLC and in the assay with A549 NSCLC was over 100 µM throughout.
On to `CCc1cc(CCC(=O)Nc2c(C)cccc2C)[nH]n1`, for which the TGI in the assay with UACC-257 melanoma, in the assay with K-562 leukemia, with M14 melanoma, with OVCAR-4 ovarian, with 786-0 renal and with SR leukemia was over 100 µM each time. The TGI in the assay with NCI-H460 lung, in the assay with HOP-92 NSCLC and with A549 NSCLC was over 100 µM throughout.
In the case of `O=c1c2cccc3cccc(c4n1CCN=4)c32`, the TGI in the assay on UACC-257 melanoma was over 100 µM; in the assay on K-562 leukemia, over 100 µM; in the assay on M14 melanoma it was over 100 µM; in the assay on OVCAR-4 ovarian it was over 100 µM; in the assay with 786-0 renal it was over 100 µM; with SR leukemia, 81.5 µM. The TGI in the assay on NCI-H460 lung, in the assay with HOP-92 NSCLC and with A549 NSCLC was over 100 µM in each case.
